The numbers were not newly measured in US7390809B2, “Beta-amino heterocyclic dipeptidyl peptidase inhibitors for diabetes” (Merck & Co., Inc., priority 2002, dated 2008), which cites them from elsewhere.

One data set concerns hematopoiesis. The note with it: mouse, cyclophosphamide-induced neutropenia.
The next data set deals with T1, DP-IV (Homo sapiens, UniProt P27487).
T1 construct: GRF is rapidly degraded in plasma to GRF[3-44]

The next data set relates to cardiac allograft. Particulars: rats; survival doubled from day 7.

T1 sequence (P27487 whole entry): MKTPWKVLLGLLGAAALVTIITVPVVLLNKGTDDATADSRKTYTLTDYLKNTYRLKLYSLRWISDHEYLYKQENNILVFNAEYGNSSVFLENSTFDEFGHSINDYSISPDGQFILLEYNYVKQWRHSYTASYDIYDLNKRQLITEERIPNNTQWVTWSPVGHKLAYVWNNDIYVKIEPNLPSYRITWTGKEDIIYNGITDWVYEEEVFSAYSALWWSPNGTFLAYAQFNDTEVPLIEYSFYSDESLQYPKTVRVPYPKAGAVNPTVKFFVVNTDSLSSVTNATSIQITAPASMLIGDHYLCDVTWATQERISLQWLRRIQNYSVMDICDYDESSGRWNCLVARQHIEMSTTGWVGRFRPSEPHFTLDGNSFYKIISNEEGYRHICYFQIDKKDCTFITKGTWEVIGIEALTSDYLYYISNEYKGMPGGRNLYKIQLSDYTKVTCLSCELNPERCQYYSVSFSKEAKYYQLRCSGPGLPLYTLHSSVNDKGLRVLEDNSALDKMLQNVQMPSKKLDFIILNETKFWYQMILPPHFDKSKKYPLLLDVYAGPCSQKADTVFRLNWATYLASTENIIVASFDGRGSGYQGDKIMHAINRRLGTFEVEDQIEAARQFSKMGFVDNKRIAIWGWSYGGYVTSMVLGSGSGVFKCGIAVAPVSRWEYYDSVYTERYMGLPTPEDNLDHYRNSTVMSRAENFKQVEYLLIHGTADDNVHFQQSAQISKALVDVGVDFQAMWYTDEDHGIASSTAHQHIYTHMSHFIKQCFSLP

As to `CC(C)[C@H](N)C(=O)N1CCC[C@H]1B(O)O` [Val-Boro-Pro], in the data set with hematopoiesis, the effect on hematopoiesis result is on record as “stimulated hematopoiesis”. As for diprotin A, the “degradation of GRF in plasma to GRF[3-44]” value at DP-IV is “prevented”. As for `CC(C)N1CCC(c2ccccc2)(c2ccccc2)CC1` [Prodipine, Pro-Pro-diphenyl-phosphonate], in the data set on cardiac allograft, the cardiac allograft survival is listed as 14 day.
